The values that follow come from BindingDB's records for doi:10.1016/j.bmcl.2005.04.021 (Novartis Institutes For Biomedical Research, 2005).

Molecules are shown by their SMILES.

This test deals with T1, Adenosine receptor A2b (Homo sapiens, UniProt P29275).
T1 sequence (P29275 whole entry): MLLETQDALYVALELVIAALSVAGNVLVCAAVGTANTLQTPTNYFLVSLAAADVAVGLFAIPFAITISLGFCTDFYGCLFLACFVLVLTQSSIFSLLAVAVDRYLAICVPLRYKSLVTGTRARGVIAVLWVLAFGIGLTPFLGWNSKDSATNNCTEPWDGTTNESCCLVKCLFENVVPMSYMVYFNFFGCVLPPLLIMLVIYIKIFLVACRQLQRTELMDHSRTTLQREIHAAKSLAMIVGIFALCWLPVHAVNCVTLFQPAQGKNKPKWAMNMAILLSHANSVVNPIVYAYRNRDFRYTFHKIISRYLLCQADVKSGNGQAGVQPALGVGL
Put plainly: Inhibition of luciferase production elicited by NECA by compound in CHO cells transfected with human adenosine A2b receptor and a luciferase expressing reporter plasmid in a reporter gene assay. Background: In a reporter assay the amount or activity of a reporter protein is the signal.

For the compound `N#Cc1cccc(-c2nc(Nc3ccccn3)sc2-n2cncn2)c1` [3-[2-(Pyridin-2-ylamino)-5-[1,2,4]triazol-1-yl-thiazol-4-yl]-benzonitrile], the KB came out at 53 nM.

The compound `N#Cc1cccc(-c2nc(Nc3cccnc3)sc2-n2cncn2)c1` [3-[2-(Pyridin-3-ylamino)-5-[1,2,4]triazol-1-yl-thiazol-4-yl]-benzonitrile] gave a KB of 86 nM.

`N#Cc1cccc(-c2nc(Nc3cccnc3)sc2-n2ccnc2)c1` [3-[5-Imidazol-1-yl-2-(pyridin-3-ylamino)-thiazol-4-yl]-benzonitrile] returned a KB of 92 nM.

The compound `N#Cc1cccc(-c2nc(Nc3ccncc3)sc2-n2cncn2)c1` [3-[2-(Pyridin-4-ylamino)-5-[1,2,4]triazol-1-yl-thiazol-4-yl]-benzonitrile] came in with a KB of 62 nM.
